Results on 7 compounds are retold here after ChEMBL document CHEMBL1128086, “Serine protease selectivity of the thrombin inhibitor D-Phe-Pro-Agmatine and its homologs” (Bioorg Med Chem Lett, 1995).

Molecules are shown by their SMILES.

Experiment [1] concerns the target Thrombin & trypsin (Homo sapiens) (UniProt P00734+P07477+P07478+P35030). Put plainly: Selectivity ratio of thrombin Kass to trypsin Kass. The format is protein assay.
Experiment [2] concerns the target Prothrombin (Homo sapiens) (UniProt P00734). Description: In vitro inhibitory potency against human alpha-thrombin.
In experiment [3] the target is Plasminogen (Homo sapiens) (UniProt P00747). Description: In vitro inhibitory potency against plasmin.
The nature of experiment [4]: Selectivity ratio of thrombin Kass to plasmin Kass.
Experiment [5] concerns the target Urokinase-type plasminogen activator (Homo sapiens) (UniProt P00749). Description: In vitro inhibitory potency against Urokinase-type plasminogen activator in human.
In experiment [6] the target is Serine protease 1 (Homo sapiens) (UniProt P07477). Put plainly: In vitro inhibitory potency against trypsin.
Experiment [7] in a line: Selectivity ratio of thrombin Kass to ntPA Kass.
For experiment [8], the target named is Thrombin and urokinase-type plasminogen activator (Homo sapiens) (UniProt P00734+P00749). Description: Selectivity ratio of thrombin Kass to Urokinase Kass. The experiment is classed as protein assay.
Experiment [9] concerns the target Tissue-type plasminogen activator (Homo sapiens) (UniProt P00750). Description: In vitro inhibitory potency against n-tissue plasminogen activator in human.
The target in experiment [10] is Plasminogen (Homo sapiens) (UniProt P00747). Description: In vitro inhibitory potency against plasmin; no enzyme inhibition was observed at an inhibitor concentration of 200 uM.
Experiment [11] deals with Tissue-type plasminogen activator (Homo sapiens) (UniProt P00750). Description: In vitro inhibitory potency against n-tissue plasminogen activator in humans; no enzyme inhibition was observed at an inhibitor concentration of 200 uM.
In experiment [12] the target is Urokinase-type plasminogen activator (Homo sapiens) (UniProt P00749). Put plainly: In vitro inhibitory potency against Urokinase-type plasminogen activator in human; no enzyme inhibition was observed at an inhibitor concentration of 200 uM.
Experiment [13] has as its target Tissue-type plasminogen activator (Homo sapiens) (UniProt P00750). Description: In vitro inhibitory potency against n-tissue plasminogen activator in human; no enzyme inhibition was observed at an inhibitor concentration of 200 uM.

Chain of Tissue-type plasminogen activator (Homo sapiens) (P00750 36-562 limits assumed): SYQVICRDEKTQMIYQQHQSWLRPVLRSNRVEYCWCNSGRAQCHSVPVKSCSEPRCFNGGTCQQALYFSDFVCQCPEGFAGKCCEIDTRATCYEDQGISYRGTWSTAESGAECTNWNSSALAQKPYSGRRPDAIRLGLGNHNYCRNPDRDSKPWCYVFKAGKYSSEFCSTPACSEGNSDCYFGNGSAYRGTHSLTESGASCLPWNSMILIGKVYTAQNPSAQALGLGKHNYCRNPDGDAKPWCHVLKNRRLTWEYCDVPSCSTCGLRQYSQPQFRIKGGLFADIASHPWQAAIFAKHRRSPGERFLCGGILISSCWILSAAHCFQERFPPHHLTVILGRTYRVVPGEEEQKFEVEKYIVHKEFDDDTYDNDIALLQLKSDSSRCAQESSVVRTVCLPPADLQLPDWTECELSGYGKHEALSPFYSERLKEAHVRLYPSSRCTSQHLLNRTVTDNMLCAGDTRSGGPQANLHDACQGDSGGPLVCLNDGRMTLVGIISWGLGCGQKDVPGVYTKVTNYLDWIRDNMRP
Chain of Serine protease 1 (Homo sapiens) (P07477 whole entry): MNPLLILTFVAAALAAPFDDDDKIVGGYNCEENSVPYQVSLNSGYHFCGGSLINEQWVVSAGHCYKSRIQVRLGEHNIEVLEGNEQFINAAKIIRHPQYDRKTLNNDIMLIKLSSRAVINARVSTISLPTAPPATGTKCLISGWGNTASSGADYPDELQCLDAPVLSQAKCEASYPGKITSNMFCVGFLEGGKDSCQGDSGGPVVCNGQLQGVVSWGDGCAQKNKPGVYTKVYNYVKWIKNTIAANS
Chain of Plasminogen (Homo sapiens) (P00747 97-580 limits assumed): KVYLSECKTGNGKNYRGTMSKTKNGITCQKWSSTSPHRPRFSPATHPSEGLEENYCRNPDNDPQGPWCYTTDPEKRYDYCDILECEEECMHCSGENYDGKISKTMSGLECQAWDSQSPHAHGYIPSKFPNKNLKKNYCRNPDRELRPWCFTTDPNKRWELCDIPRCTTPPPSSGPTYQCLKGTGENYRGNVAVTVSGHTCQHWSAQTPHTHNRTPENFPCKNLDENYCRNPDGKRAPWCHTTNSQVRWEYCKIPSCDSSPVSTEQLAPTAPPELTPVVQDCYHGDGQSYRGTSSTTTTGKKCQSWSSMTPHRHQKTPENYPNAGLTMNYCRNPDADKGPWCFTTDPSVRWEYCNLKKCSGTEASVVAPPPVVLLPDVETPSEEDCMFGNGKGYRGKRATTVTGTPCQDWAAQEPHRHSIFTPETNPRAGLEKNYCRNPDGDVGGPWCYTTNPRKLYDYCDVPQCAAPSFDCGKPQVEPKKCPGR
Chain of Plasminogen (Homo sapiens) (P00747 581-810 limits assumed): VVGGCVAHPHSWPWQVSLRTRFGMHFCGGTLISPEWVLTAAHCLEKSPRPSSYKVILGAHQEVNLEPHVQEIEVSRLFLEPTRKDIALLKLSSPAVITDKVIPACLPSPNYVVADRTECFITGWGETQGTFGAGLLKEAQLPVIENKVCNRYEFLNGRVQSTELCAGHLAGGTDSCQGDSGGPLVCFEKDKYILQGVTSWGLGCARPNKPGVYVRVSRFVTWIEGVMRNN

As for `NC(N)=NCCC[C@@H](C=O)NC(=O)[C@@H]1CCCN1C(=O)[C@H](N)Cc1ccccc1`, the Ratio stood at 5.1 in experiment [1], 390 in experiment [4], 1800 in [7] and 13000 in [8]. In addition, the K ass was 5.4e+08 l M-1 in experiment [2]; 1.4e+06 l M-1 in experiment [3]; 42000 l M-1 in experiment [5]; 1.1e+08 l M-1 in experiment [6]; 290000 l M-1 in experiment [9].

With `NC(N)=NCCCCCNC(=O)[C@@H]1CCCN1C(=O)[C@H](N)Cc1ccccc1`, the Ratio in experiment [1] is 480; in [4] it was more than 5200; in experiment [7], more than 5200; in experiment [8], more than 5200. Also, the K ass in [10] is < 250 l M-1; in [2], 1.3e+06 l M-1; in experiment [11] it was < 250 l M-1; in [6], 2700 l M-1; in experiment [12], < 250 l M-1.

Regarding `CN[C@H](Cc1ccccc1)C(=O)N1CCC[C@H]1C(=O)NCCCCN=C(N)N`, the Ratio in experiment [1] was determined as 10; in [4] it was 2100; in [7], 2100; in [8], 13000. Moreover, the K ass is 2.4e+06 l M-1 in experiment [2]; 1100 l M-1 in experiment [3]; 180 l M-1 in experiment [5]; 240000 l M-1 in experiment [6]; 1100 l M-1 in [9].

For the compound `NC(N)=NCCCCNC(=O)C1CCCN1C(=O)[C@H](N)Cc1ccccc1` (some centres undefined), the Ratio in experiment [1] was determined as 33; in experiment [4] it was 4600; in experiment [7] it was 920; in experiment [8] it was 31000. Also, the K ass in [2] was 5.5e+06 l M-1; in experiment [3], 1200 l M-1; in experiment [5], 180 l M-1; in experiment [6], 170000 l M-1; in experiment [9], 6000 l M-1.

In the case of `NC(N)=NCCCCCCNC(=O)[C@@H]1CCCN1C(=O)[C@H](N)Cc1ccccc1`, the K ass in [10] was < 250 l M-1; in [2] it was 24000 l M-1; in experiment [6], 600 l M-1; in experiment [13], < 250 l M-1; in [12] it was < 250 l M-1.

As to `NC(N)=NCCCNC(=O)[C@@H]1CCCN1C(=O)[C@H](N)Cc1ccccc1`, the Ratio in experiment [1] is 100; in experiment [4], more than 5600; in [7], 341; in [8] it was 5600. For the same compound, the K ass in experiment [10] was < 250 l M-1; in [2] it was 1.4e+06 l M-1; in [6], 14000 l M-1; in experiment [9], 4100 l M-1; in experiment [12] it was < 250 l M-1.

As for `CN[C@H](Cc1ccccc1)C(=O)N1CCC[C@H]1C(=O)N[C@H](C=O)CCCNC(=N)N`, the Ratio in [1] turned out to be 5.2; in experiment [4], 260; in [7], 8500; in [8] it was 14000. For the same compound, the K ass in experiment [2] is 4.6e+08 l M-1; in experiment [3], 1.8e+06 l M-1; in experiment [5], 32000 l M-1; in [6] it was 8.8e+07 l M-1; in experiment [9], 50000 l M-1.
